Earlier results as cited in patent publication US20110105600A1, “SYNERGISTIC COMPOSITION OF (-)-HYDROXYCITRIC ACID WITH MONOTERPENE AND A METHOD TO ENHANCE SATIETY” (Glykon Technologies Group, LLC, priority 2009, published 2011).

Experiments:
[1] = 40 oz of Mediterranean-style lemonade containing 596 mg d-limonene
[2] = test system: rat
[3] = single large oral dose or two divided oral doses; animals fed a high-sugar diet
[4] = end of eight weeks; 2,800 mg/HCA per day in capsules
[5] = not given; remark: listed apart in the source
[6] = humans; dosage related to total body surface area

Structure (SMILES): C=C(C)[C@H]1CC=C(C)CC1 [d-limonene]
- time to maximal blood concentrations of perillyl alcohol [1]: one
- duration of slight fatigue and eructation (oral dose of 100 mg/kg): four
- duration of mild satiety (oral dose of 100 mg/kg (bolus of 7 grams for a 70 kg human)): 10 h

Structure (SMILES): CC(C)=CCC/C(C)=C/CO [geraniol]
- acute oral LD50 [2]: 3,600 mg/kg body weight

Structure (SMILES): O=C(O)CC(O)(C(=O)O)C(O)C(=O)O (single isomer, unassigned; (-)) [HCA, (−)-hydroxycitric acid]
- reduction in food consumption [3]: ≥ 10%
- decrease in appetite [4]: approximately 15.6%
- decrease in food intake ([5]; 900 mg HCA dissolved in 100 ml tomato juice, 2-week period): 15-30%
- reduction in appetite ([5]; 900 mg/day, two weeks): 15-30%
- weight loss ([5]; 2-week period): no significant weight loss

Structure (SMILES): C=C(C)[C@@H]1CC=C(CO)CC1 [perillyl alcohol]
- maximum tolerated dose [6]: 8400 mg/m^2 per day

Structure (SMILES): CC(C)=CCC/C(C)=C\CO [nerol]
- acute oral LD50 [2]: 4,500 mg/kg body weight
